Test results published in ChEMBL document CHEMBL4627246, “Pyroglutamide-Based P2X7 Receptor Antagonists Targeting Inflammatory Bowel Disease” (J Med Chem, 2020).

Assays:
Assay type in all cases: cell-based
U-251 = test: Cytotoxicity against human U251 cells assessed as effect on cell growth at 10 uM incubated for 48 hrs by sulforhodamine B assay; details: u-251, 48 h
SK-OV-3 = test: Cytotoxicity against human SKOV3 cells assessed as effect on cell growth at 10 uM incubated for 48 hrs by sulforhodamine B assay; details: sk-ov-3, 48 h
NCI-H226 = test: Cytotoxicity against human NCI-H226 cells assessed as effect on cell growth at 10 uM incubated for 48 hrs by sulforhodamine B assay; details: nci-h226, 48 h
LOX IMVI = test: Cytotoxicity against human LOXIMVI cells assessed as effect on cell growth at 10 uM incubated for 48 hrs by sulforhodamine B assay
IGROV-1 = test: Cytotoxicity against human IGROV1 cells assessed as effect on cell growth at 10 uM incubated for 48 hrs by sulforhodamine B assay; details: igrov-1, 48 h
M14 = test: Cytotoxicity against human M14 cells assessed as effect on cell growth at 10 uM incubated for 48 hrs by sulforhodamine B assay; details: m14, 48 h
HT-29 = test: Cytotoxicity against human HT-29 cells assessed as effect on cell growth at 10 uM incubated for 48 hrs by sulforhodamine B assay; details: ht-29, 48 h
SK-MEL-2 = test: Cytotoxicity against human SK-MEL-2 cells assessed as effect on cell growth at 10 uM incubated for 48 hrs by sulforhodamine B assay; details: sk-mel-2, 48 h
TK-10 = test: Cytotoxicity against human TK10 cells assessed as effect on cell growth at 10 uM incubated for 48 hrs by sulforhodamine B assay; details: tk-10, 48 h
MOLT-4 = test: Cytotoxicity against human MOLT4 cells assessed as effect on cell growth at 10 uM incubated for 48 hrs by sulforhodamine B assay; details: molt-4, 48 h
SF-268 = test: Cytotoxicity against human SF268 cells assessed as effect on cell growth at 10 uM incubated for 48 hrs by sulforhodamine B assay; details: sf-268, 48 h
SN12C = test: Cytotoxicity against human SN12C cells assessed as effect on cell growth at 10 uM incubated for 48 hrs by sulforhodamine B assay
OVCAR-3 = test: Cytotoxicity against human OVCAR3 cells assessed as effect on cell growth at 10 uM incubated for 48 hrs by sulforhodamine B assay; details: ovcar-3, 48 h
NCI-H23 = test: Cytotoxicity against human NCI-H23 cells assessed as effect on cell growth at 10 uM incubated for 48 hrs by sulforhodamine B assay; details: nci-h23, 48 h
NCI-H522 = test: Cytotoxicity against human NCI-H522 cells assessed as effect on cell growth at 10 uM incubated for 48 hrs by sulforhodamine B assay; details: nci-h522, 48 h
CAKI-1 = test: Growth inhibition of human Caki1 cells assessed as growth percentage at 10 uM incubated for 48 hrs by sulforhodamine B assay; details: caki-1, 48 h
A549 = test: Cytotoxicity against human A549/ATCC cells assessed as effect on cell growth at 10 uM incubated for 48 hrs by sulforhodamine B assay; details: a549, 48 h
SK-MEL-28 = test: Cytotoxicity against human SK-MEL-28 cells assessed as effect on cell growth at 10 uM incubated for 48 hrs by sulforhodamine B assay; details: sk-mel-28, 48 h
MDA-MB-435 = test: Cytotoxicity against human MDA-MB-435 cells assessed as effect on cell growth at 10 uM incubated for 48 hrs by sulforhodamine B assay; details: mda-mb-435, 48 h
RPMI-8226 = test: Cytotoxicity against human RPMI8226 cells assessed as effect on cell growth at 10 uM incubated for 48 hrs by sulforhodamine B assay; details: rpmi-8226, 48 h

Measured: Activity

O=C1N[C@H](C(=O)NCc2ccc(Cl)cc2Cl)C/C1=C\N1CCOCC1
Non-Toxic: all assays above

O=C(NCCc1ccc(Cl)cc1Cl)[C@@H]1CCC(=O)N1c1ccccc1
Non-Toxic: all assays above

O=C(NCc1ccccc1Cl)[C@@H]1CCC(=O)N1c1ccccc1
Non-Toxic: all assays above

COc1ccc(NC(=O)[C@@H]2C/C(=C\N(C)C)C(=O)N2)cc1
Non-Toxic: all assays above

CN1C(=O)CC[C@H]1C(=O)NCc1cccc(C(F)(F)F)c1Cl [GSK1482160]
Non-Toxic: all assays above

O=C(NCc1ccc(Cl)cc1Cl)[C@@H]1CCC(=O)N1c1cccs1
Non-Toxic: all assays above

COc1ccccc1CN1C(=O)[C@@H]2C/C(=C\N(C)C)C(=O)N2C1N(C)C (stereo not given in full)
Non-Toxic: all assays above
